# Like-named read-outs stand apart in the source and are kept apart here.
# Key:
# HepG2 cells = assay: Clonogenic assay; format: cell-based, human; conditions: 14 days
# Description: HepG2 cells were treated with varying concentrations of 2–6 added once and kept for 14 days before counting colonies and calculating surviving fraction (Figure 2).
# The ability of potential anticancer agents to prevent unlimited cell division and induce reproductive cell death was assessed using clonogenic assay as previously described.[57] In brief, HepG2 cells were seeded into six-well plates at a density of 1000 single cells/well and incubated for 10–12 h to adhere. The cells were then treated with DMSO (control) or a range of concentrations of 2–6 for 14 days. Afterward, the produced colonies were washed with phosphate-buffered saline (PBS), fixed with 70% ethanol for 20 min, and stained with 0.5% (w/v) methylene blue (prepared in 70% methanol). Following washing with water and drying, colonies (≥50 cells) were manually counted. The colony-forming efficiency (CFE) of cells was calculated by dividing the number of colonies formed by the number of cells seeded for each condition. The surviving fraction was determined by dividing the CFE of the treated cells by CFE of the control cells. A survival curve was generated by plotting the log of drug concentrations versus surviving fraction.
# SNU423 = assay: SRB antiproliferative assay, SNU423; format: cell-based, human; conditions: Homo sapiens
# Description: (§1) In light of this substantial change in activity between the meta and para compounds, a more comprehensive analysis of the antiproliferative activity was performed for the meta-/para-3-arylisoquinolinone pairs 2 and 3, 4, and 5, as well as 6. A panel of breast (MDA-MB-231), liver (HepG2, SNU423), lung (A549), and colon (HCT116) cancer cell lines were treated with the five 3-arylisoquinolinone analogs for 96 h followed by the SRB assay. The dose–response curves (including those for MCF-7) are presented in Figure S22, and their relevant IC50 values are listed in Table 1. […] The differential activity between meta- and para-3-arylisoquinolinones was reproduced in the National Cancer Institute (NCI) one-dose screen using a panel of 59 cancer cell lines (Figure S23).
# All cell lines used in the study were human-derived and purchased from ATCC (Manassas, USA). Breast adenocarcinoma MCF-7 and MDA-MB-231 cell lines were cultured in DMEM. Hepatocellular carcinoma HepG2 and SNU423 cell lines were grown in MEME combined with 1% (v/v) nonessential amino acids and RPMI supplemented with 2 mM glutamine, respectively. Lung adenocarcinoma A549 and colorectal carcinoma HCT116 cells were grown in RPMI (+2 mM glutamine). All previous media were further supplemented with 10% heat-inactivated fetal bovine serum. The immortalized, normal liver THLE-3 cells were grown in BEGM (Lonza, Cat# CC-3170) onto precoated vessels according to ATCC’s instructions. Human umbilical vein endothelial cells (HUVECs) were cultured in EGM-2 (Lonza, Cat# CC-3162). All of the cells were maintained at 37 °C and 5% CO2 in a humidified incubator.
# Screening of the antiproliferative activity of 3-arylisoquinolinones was performed using the SRB assay as previously described.[56] Exponentially growing HepG2, SNU423, MDA-MB-231, MCF-7, A549, HCT116, THLE-3, and HUVECs were seeded in 96-well plates at densities of 3000, 2000, 1500, 2500, 1000, 1000, 4000, and 4000 cells/well, respectively. These densities were experimentally selected so that the DMSO-treated cells (control) were approximately 80–90% confluent at the assay’s endpoint, and their optical density (OD) values fell within the assay’s linear range. […] After treatment, cell monolayers were fixed with 10% (w/v) trichloroacetic acid for 1 h at 4 °C, washed, and dried. Then, the cells were exposed to 0.4% (w/v) SRB dye (prepared in 1% (v/v) acetic acid; Botium, Cat# 80100) for 15 min followed by several 1% acetic acid washing and then drying. Finally, the cellular protein-bound SRB was thoroughly dissolved in 10 mM Tris base, and the OD values were read at 510 nm using a plate reader (μQuant Microplate Spectrophotometer, Biotek, U.K.) coupled with Gen5 software (BioTek, U.K.). Compound-induced changes in cell growth were inferred from changes in OD values. Cell growth was calculated using the following formula: cell growth (%) = (ODtest/ODcontrol) × 100.
# HUVECs [1] = assay: Endothelial tube disruption assay; format: cell-based, human; conditions: 16 h treatment after 4 h tube formation; concentration-dependent, more pronounced at 1 and 2 μM of 4
# Description: (§2) Moreover, networks of HUVEC-based tubes were exposed for 16 h to different concentrations of 4 and 5 to assess their potential tube disruptive effects (Figure 8B). […] The disruption was more pronounced at 1 and 2 μM of 4, as evidenced by a decrease in tube junctions and formation of short distorted tubes.
# (§3) Matrigel (Corning, Cat# 356237) was gently added into 96-well plates at a volume of 70 μL/well and allowed to gel at 37 °C for 30 min. A mixture of HUVECs (25 × 10^3) and DMSO, 4 (0.5, 1, 2 μM), or 5 (25 μM) was then dispensed over the gels and incubated for 16 h. Next, the wells were filled with PBS and covered with a coverslip to diminish the meniscus effect, allowing proper examination of the endothelial tube networks under a light microscope (Optika XDS-3, Italy). Bright-field images of 4x magnification were captured and then processed using Fiji ImageJ software. For the assessment of endothelial tube disruption, HUVECs at a density of 25 × 10^3 cells/well were seeded onto Matrigel and incubated for 4 h to align into tubes. The cells were then treated with DMSO, 4, or 5 for 16 h prior to the microscopic examination as mentioned above.
# HUVECs [2] = assay: Endothelial cell tube formation assay; format: cell-based, human; conditions: 16 h, Matrigel
# Description: as §2, §3
# [3] = tested on: panel of 59 cancer cell lines; assay: NCI one-dose screen; format: cell-based; conditions: 10 µM, 48 h, SRB
# Description: as §1
# Figure S23. NCI One-Dose Mean graphs for 3-arylisoquinolinones 4, 5 […]
# In NCI one-dose screen, the 59 cell lines (classified into 9 groups) were exposed to 4, 5 and 7 at a single dose of 10 µM for 48 h followed by SRB assay. The one-dose data were reported as a mean graph of the growth percentage of treated cells, as relative to the cell number of both the no-drug control and the zero time (before adding the test agent). Values between 0 and 100 indicate growth inhibition, whereas values less than 0 indicate lethality. For instance, a value of 40 means 60% growth inhibition; 0, no growth throughout the experiment; -40, 40% lethality; and - 100, all cells are dead.1
# A) One-dose mean graph for 3-arylisoquinolinone 4 (NSC number 795055)
# [4] = SNU-423, 96 h treatment, mean ± SEM, read-out: IC50 SNU423
SMILES,colony formation (HepG2 cells; 0.5 or 1 μM),"IC50 (SNU423; SNU-423, 24 h +drug/72 h –drug treatment, read-out: mean IC50 ± SEM, SNU423)",IC50 (SNU423; [4]),disruption of preestablished capillary-like tubes (HUVECs [1]),effect on capillary-like tube formation (HUVECs [2]; 2 μM),inhibition of growth in NCI one-dose screen [3],surviving fraction (HepG2 cells; concentrations as high as 20 μM),effect on capillary-like tube formation (HUVECs [2]; 25 μM)
"O=c1[nH]c(-c2cccc(F)c2)cc2cc(F)ccc12 [compound 4, 6-Fluoro-3-(3-fluorophenyl)isoquinolin-1(2H)-one]",No colonies were apparent,360 ± 10 nM,250 ± 30 nM,able to disrupt the preestablished capillary-like tubes,markedly suppressed tube formation,far more potent in the inhibition of growth of many of the cell lines,–,–
"O=c1[nH]c(-c2ccc(F)cc2)cc2cc(F)ccc12 [compound 5, 6-Fluoro-3-(4-fluorophenyl)isoquinolin-1(2H)-one]",–,–,> 50000 nM,not observed,–,less active,0.5,did not significantly affect the process of tube formation
